Experimental data: paper PMC11505038, “Kalata B1 Enhances Temozolomide Toxicity to Glioblastoma Cells” (Biomedicines, 2024)

Assays:
[1] = Human serum stability assay (UPLC-MS); details: 37 °C
Procedure: Established protocols were used to analyze peptide stability in human serum isolated from male AB plasma (Sigma-Aldrich). Briefly, thawed plasma was centrifuged for 10 min at 15,000× g to concentrate lipids. The supernatant was carefully removed with a Pasteur pipette and incubated for 15 min at 37 °C, 5% CO2. […] Controls were synthetic Kalata B1 or TMZ in PBS that were incubated in parallel with human serum test compounds. Serum proteins were denatured with urea (final concentration of 3M) at 4 °C for 10 min., at each time point. Afterwards, trichloroacetic acid (7% final v/v) was added for 10 min to precipitate the proteins. Each sample was centrifuged for 10 min at 15,000× g; the supernatant was removed an evaluated in triplicate using UPLC-MS.
We conducted peptide stability assays in human serum isolated from male AB plasma and then analyzed with UPLC-MS. Synthetic Kalata B1 and TMZ were incubated with human serum and the portion of the peptide remaining was quantified by calculating the area of the respective elution peak in UPLC-MS, compared to the control.
Percentage of Kalata B1 and TMZ remaining upon incubation with human serum. The portion of serum-treated peptide remaining was determined by calculating the area of the respective elution peak in UPLC-MS and comparing it with the control without incubation. Data points are means ± SEM.

[2] = test system: T-98G human glioblastoma cells; assay: cells; details: read-out: IC50 (μM) ± S.D.; T-98G, MTT, 72 h, 6000 cells/well, best fit nonlinear regression, triplicate wells, n = 3
Procedure: (§1) SH-SY5Y human neuroblastoma cells (population doubling (PD) 20−24), T-98G, and U-87 MG human glioblastoma cells were removed from cryogenic storage, thawed rapidly in a water bath (37 °C) and reconstituted in 75 cm^2 flasks. For SH-SY5Y, the following media were used: Dulbecco’s modified Eagle’s medium/Nutrient F12 Ham (Sigma-Aldrich, Cat. No. D8437) containing 10% heat-inactivated fetal bovine serum, 4 mM L-glutamine, 100 U/mL penicillin, and 100 μg/mL streptomycin. For U-87 MG and T-98G Eagle’s minimal essential medium (ATCC: The Global Bioresource Center, Cat. No. ATCC 30-2003), containing 10% heat-inactivated fetal bovine serum, 4 mM L-glutamine, 100 U/mL penicillin, and 100 μg/mL streptomycin were used.
(§2) Cells were incubated at 37 °C in a humidified atmosphere of 5% CO2 and 95% air until recovered and ready for passaging (approximately 4 days). At between 80% and 90% confluence, the cells were trypsinized with warm (37 °C) sterile 0.5% Trypsin-EDTA (Thermo Fisher, Cat. No. 15400054) and passaged into 175 cm^2 flasks, where they were left to multiply until they reached 80−90% confluence. To plate cells: cultures were trypsinized, resuspended in 20 mL sterile PBS, counted using a cell counter (Olympus cell counter model R1), and plated in 96-well plates at an optimal density of 6000 cells/well in the designated culture media. The cells were left to adhere overnight before treatment the following day, when the culture medium was removed and replaced with the treatment medium. All incubations were conducted in triplicate wells and repeated at least three times (n = 3).
(§3) To calculate TMZ IC50 values in each cell line, TMZ was dissolved in DMSO at a stock concentration of 103 mM, which was then diluted into culture medium on the day of use, with the DMSO final concentration always less than 0.1%. The following concentrations of TMZ were used in the experiments: 0.5, 5, 50, 500, 2500, 5000 μM. The media were sterilized for each treatment media with a 0.22 μm filter before they were added to cell cultures. To determine the IC50 values for each cyclotide in each cell type, cyclotides were dissolved into 10% DMSO and then dilutions used to screen cyclotides with a final DMSO concentration of less than 0.1% The following concentrations of cyclotides were used: 0.1, 1, 5, 10 μM. For co-exposure experiments, a simultaneous exposure of cyclotide and TMZ at each respective dose was added to cell cultures (100 μL final volume per well).
(§4) In accordance with the methods developed by Mosmann and colleagues, the MTT assay was conducted using the Roche cell proliferation kit (Cat. No. 11465007001). Briefly, cells that are active can cleave MTT. The MTT is originally a yellow tetrazolium salt that undergoes a colorimetric change to purple formazan crystals, and the change in absorbance can be measured as an indicator of cell viability/proliferation. For these experiments, cells were plated into 96-well flat-bottom plates, as described in the cell culture above. […] To align with our previous work, experiments were conducted with a 72 h time frame for cytotoxicity evaluation.
(§5) After a 72 h incubation period, plates were removed from the incubator and 10 µL of MTT was added to each well. The plates were returned to the incubator for an additional 4 h, after which 100 µL of a solubilization solution was added to each well. The plates were returned to incubation overnight, and the next day absorbances were read at 570 nm on a Molecular Devices FlexStation 3 using SoftMax Pro Microplate Data Acquisition and Analysis Software (version 7.0.2).

[3] = test system: U-87 MG human glioblastoma cells; assay: cells; details: read-out: IC50 (μM) ± S.D.; U-87 MG, MTT, 72 h, 6000 cells/well, cyclotides 0.1-10 μM, TMZ 0.5-5000 μM, best fit nonlinear regression, triplicate wells, n = 3
Procedure: as §1, §2, §3, §4, §5

[4] = test system: U-87 MG glioblastoma cells; assay: MTT co-exposure of synthetic Kalata B1 and TMZ in U-87 MG cells; format: cell-based, human; details: TMZ 100 µM + synthetic Kalata B1 0.5 µM, MTT 72 h, ANOVA/Tukey
Procedure: To calculate TMZ IC50 values in each cell line, TMZ was dissolved in DMSO at a stock concentration of 103 mM, which was then diluted into culture medium on the day of use, with the DMSO final concentration always less than 0.1%. The following concentrations of TMZ were used in the experiments: 0.5, 5, 50, 500, 2500, 5000 μM. The media were sterilized for each treatment media with a 0.22 μm filter before they were added to cell cultures. […]
In accordance with the methods developed by Mosmann and colleagues, the MTT assay was conducted using the Roche cell proliferation kit (Cat. No. 11465007001). […] The MTT is originally a yellow tetrazolium salt that undergoes a colorimetric change to purple formazan crystals, and the change in absorbance can be measured as an indicator of cell viability/proliferation. […]
Figure 8 Synthetic Kalata B1 increased TMZ-induced cell death in U-87 MG glioblastoma cultures. To determine if synthetic Kalata B1 (K) enhances TMZ (T)-induced cell death in U-87 MG cells, MTT was measured after incubating the cell cultures with concentrations of K (0.5, 1.0, 2.0, and 4.0 μM) and T (100, 200, 400, and 800 μM) both alone and when co-exposed to synthetic Kalata B1 and TMZ as illustrated in panels (A–M). […] Cell viability was measured using MTT and expressed as a percentage of control cultures (culture medium with DMSO only). […]

[5] = test system: interleukin-2 (IL-2); details: cited from earlier work
Text: Although a mechanistic evaluation of Kalata B1 bioactivity was beyond the scope of this research, a brief discussion of the previous mechanistic studies is justified. For instance, Henriques and colleagues provided supporting evidence that cyclotides can target phosphatidylethanolamine (PE)-enriched phospholipids and penetrate the cell via both endocytosis and membrane translocation.

[6] = test system: anaplastic large cell lymphoma (ALCL); details: mouse model of anaplastic large cell lymphoma; cited from earlier work
Text: (§6) The development of an in vivo mouse model is vital, yet it requires expertise, significant finances, and large quantities of the target cyclotide. […] A mouse model of anaplastic large cell lymphoma (ALCL) was developed, and the Kalata B1 mutant, named [T20K] Kalata B1, decreased tumor weight and increased ...

[7] = test system: U-87 MG cells; details: U-87 MG; cited from earlier work
[8] = test system: glioblastoma cells; details: cytotoxicity; ref Our previous research; cited from earlier work
[9] = test system: U-251 glioblastoma cells; details: MTT; cited from earlier work
[10] = test system: mice; details: cited from earlier work
Text: as §6

[11] = test system: primary human brain endothelial cells; details: SYTOX green assay; cited from earlier work
Text: Challenges commonly associated with treating cancer can include low drug uptake across the cellular lipid bilayer, the activity of pumps, such as p-glycoprotein, that efflux drugs out of the cell, and the impenetrability of the blood–brain barrier. Our previous research provided supporting evidence that cyclotides such as CyO2 can act as adjuvants in drug-resistant breast cancer cells, whereby cyclotides sensitize human breast adenocarcinoma (MCF-7) and drug-resistant human breast adenocarcinoma (MCF-7/ADR) cells to the FDA-approved anti-cancer drug, doxorubicin. In that case, one ...

[12] = test system: U-87 glioblastoma cells; details: MTT; cited from earlier work

**Q.** What does the source list for `CC(C)C[C@@H]1NC(=O)CNC(=O)[C@H](CC(N)=O)NC(=O)[C@H](CCCNC(=N)N)NC(=O)[C@H]([C@@H](C)O)NC(=O)[C@@H]2CSSC[C@@H]3NC(=O)[C@H]([C@@H](C)O)NC(=O)CNC(=O)CNC(=O)[C@H](C(C)C)NC(=O)[C@@H]4CSSC[C@H](NC(=O)[C@H]([C@@H](C)O)NC(=O)[C@H](CSSC[C@H](NC(=O)[C@H](C(C)C)NC(=O)[C@@H]5CCCN5C1=O)C(=O)NCC(=O)N[C@@H](CCC(=O)O)C(=O)N[C@@H]([C@@H](C)O)C(=O)N4)NC(=O)CNC(=O)[C@@H]1CCCN1C(=O)[C@H]([C@@H](C)O)NC(=O)[C@H](CC(N)=O)NC3=O)C(=O)N[C@@H](CO)C(=O)N[C@@H](Cc1c[nH]c3ccccc13)C(=O)N1CCC[C@H]1C(=O)N[C@@H](C(C)C)C(=O)N2` [Kalata B1 (synthetic), Kalata B1]?
**A.** Stability in human serum (in words) ([1]; data points of 3 h, 8 h and 24 h, human serum from male AB plasma, 300 µM stock diluted 10 times, UPLC-MS peak area vs control, triplicate, listed as synthetic Kalata B1): remains stable; Time for which the peptide remains stable in human serum ([1]; human serum isolated from male AB plasma, UPLC-MS): at least 24 h; IC50 [2]: 2.6 ± 0.24 µM; IC50 [3]: 5.4 ± 1.06 µM; Fold lower TMZ concentration than TMZ IC50 still giving significant cytotoxicity on co-exposure [4]: 16 fold

**Q.** With “[T20K] Kalata B1: a Kalata B1 mutant (cyclo(GLPVCGETCVGGTCNTPGCKCSWPVCTRN); disulfide (positions not given here); ends not checked; also: disulfides, places not given here; UniProt P56254 89-117, looked up, variant T20K)” as the compound, how does the “Effect on IL-2 expression, IL-2 cytokine secretion and IL-2 gene expression” value [5] read?
**A.** could decrease

**Q.** What about the “Anti-tumor effect in ALCL mouse model” value [6] of the same compound?
**A.** decreased tumor weight and increased apoptosis

**Q.** Which “Fold less TMZ required for significant cell death on co-exposure with the cyclotide” value [7] does the source give for Cycloviolacin O2 [CyO2] here?
**A.** 8 fold

**Q.** What about the IC50 [8] of the same compound?
**A.** 4.5 µM

**Q.** What about the IC50 [9] of the same compound?
**A.** 0.79 µM

**Q.** And the “In vivo toxicity at 1.5 mg/kg” value ([10]; mice treated with 1.5 mg/kg in tumor mouse models)?
**A.** no signs of discomfort

**Q.** What about the “In vivo toxicity, single injection at 2 mg/kg” value ([10]; mice, single injection 2 mg/kg) of the same compound?
**A.** lethal

**Q.** And the Membrane disruption [11]?
**A.** did not produce significant membrane disruption

**Q.** And the IC50 [12]?
**A.** 0.45 µM
